# In patent US20260048036A1, “CRYSTALLINE FORMS OF A GLUCOSYLCERAMIDE SYNTHASE INHIBITOR AND USES THEREOF” (ACELINK THERAPEUTICS, INC., priority 2022, published 2026):
# Where a chain is given by its changes, count along the chain named. Several values for one entry are separate records, joined by “and”; a condition that tells them apart may be missing. Equal entries are not always repeated.
# Assays:
# [1] = Hygroscopicity by DVS at 25° C.; format: physicochemical; settings: for water uptake increased from 40% RH to 90% RH: DVS
# [2] = Solid state stability, 1 week (HPLC purity, color, XRPD); settings: for Bulk (XRPD) / Purity, Bulk (HPLC): Solid state, 1 week; for Purity, Bulk (HPLC): initial purity 99.8%
# [3] = Solubility at 37° C. in pH buffers and bio-relevant media
# [4] = molecular target: T1, Glucosylceramide synthase (GCS) (Canis lupus familiaris, UniProt A0A8I3MXG6); assay: GCS enzymatic assay with MDCK cell lysate; format: biochemical, canine
# T1 construct: The MDCK, K-562, and L6 cell lines all endogenously express GCS enzyme; host or cells: MDCK (canine kidney) cell lysate
# T1 sequence (A0A8I3MXG6 1-394): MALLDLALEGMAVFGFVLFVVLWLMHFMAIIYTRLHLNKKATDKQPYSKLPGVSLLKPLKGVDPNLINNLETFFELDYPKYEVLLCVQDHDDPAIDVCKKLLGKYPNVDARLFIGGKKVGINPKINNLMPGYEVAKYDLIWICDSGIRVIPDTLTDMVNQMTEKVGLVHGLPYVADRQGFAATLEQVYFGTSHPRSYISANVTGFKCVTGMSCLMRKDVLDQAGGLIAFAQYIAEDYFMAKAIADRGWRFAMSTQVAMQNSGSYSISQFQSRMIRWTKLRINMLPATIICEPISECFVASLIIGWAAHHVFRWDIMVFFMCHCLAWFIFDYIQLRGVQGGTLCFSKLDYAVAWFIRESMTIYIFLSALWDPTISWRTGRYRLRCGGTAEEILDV
# Excerpt: The reaction product, C6-NBD-glucosylceramide, could then be detected and quantified by LC-MS/MS. The inventors used this method to test and validate the effect of various GCS inhibitors on GCS enzyme activity from different species.
# The GCS enzyme activity was detected by using the fluorescent substrate, C6-NBD-ceramide, and monitoring the formation of the fluorescent reaction product, C6-NBD-glucosylceramide. First, the inventors used cell lysate derived from a canine kidney cell line (MDCK, ATCC Cat #CCL-34™) as the source of GCS and tested the inhibitory activity of several control and test compounds.
# (§1) GCS activity was evaluated using a GCS enzyme assay derived from MDCK or L6 cell lysates.
# (§2) MDCK or L6 cell lysates were prepared using M-PER in the presence of a protease inhibitor cocktail. Each 100 mm dish (100% confluent) was lysed with 250 μl of M-PER containing protease inhibitors. Protein concentration was determined using Pierce BCA protein assay kit.
# The final concentration of DMSO was 0.1% in both compound treated and DMSO only treated samples. Each individual reaction was terminated with 11 volumes of methanol:acetonitrile (6:5; containing 200 ng/ml Tolbutamide as internal control). After sufficient mixing, reactions were centrifuged at 2000 rpm for 10 mins, supernatant was injected into the LC-MS/MS for analysis.
# (§3) The quantitative analysis of C6-NBD-glucosylceramide was performed on a Shimadzu ultra-fast liquid chromatography coupled with API 4000 mass spectrometer. Analyst 1.5 software packages were used to control the LC-MS/MS system, as well as for data acquisition and processing.
# (§4) The C6-NBD-glucosylceramide reading was normalized first by dividing the peak area of C6-NBD-glucosylceramide with the peak area of the internal standard, and then the amount was calculated according to the standard curve generated in the same assay run. For the cell based assay results, the amount of C6-NBD-glucosylceramide was also normalized by the protein concentration of the cell samples.
# IC50 values were generated from sigmoidal dose-response (variable slope) curves with GraphPad Prism software (GraphPad Software, Inc., San Diego, CA) using the percent inhibition of C6-NBD-glucosylceramide accumulation relative to DMSO control.
# [5] = molecular target: T2, Glucosylceramide synthase (GCS) (Rattus norvegicus, UniProt Q9R0E0); assay: GCS enzymatic assay with L6 cell lysate; format: biochemical; settings: 1 μM, N = 1, N = 2
# T2 construct: The MDCK, K-562, and L6 cell lines all endogenously express GCS enzyme; host or cells: L6 rat skeletal muscle cell lysate
# T2 sequence (Q9R0E0 1-394): T1 sequence (A0A8I3MXG6 1-394) with L8Q, V13L, A29S, D96E, G131A, K164R, R249K, A251S, T377A
# Excerpt: In this study, the inventors developed a reliable method to monitor GCS catalytic activity using the fluorescent substrate, C6-NBD-ceramide. The reaction product, C6-NBD-glucosylceramide, could then be detected and quantified by LC-MS/MS. The inventors used this method to test and validate the effect of various GCS inhibitors on GCS enzyme activity from different species.
# The MDCK, K-562, and L6 cell lines all endogenously express GCS enzyme and were used to test the effect of various GCS inhibitors on enzyme originating from different species. The GCS enzyme activity was detected by using the fluorescent substrate, C6-NBD-ceramide, and monitoring the formation of the fluorescent reaction product, C6-NBD-glucosylceramide. First, the inventors used cell lysate derived from a canine kidney cell line (MDCK, ATCC Cat #CCL-34™) as the source of GCS and tested the inhibitory activity of several control and test compounds. The inventors then used the human leukemia K-562 cell line (ATCC Cat #[…]) to test the effect of these GCS inhibitors on intact living cells. Finally, a cell lysate derived from a rat skeletal muscle cell line, L6 (ATCC Cat #[…]), was used to test the effect of these GCS inhibitors on rodent GCS enzyme.
# as §1, §2
# Sixty micrograms of MDCK lysate was incubated with various concentrations of compounds (0.00001 μM-1 μM) in 100 mM Tris buffer (pH 7.5) containing 10 mM MgCl2, 1 mM dithiothreitol, 1 mM EGTA, 2 mM NAD, 100 μM UDP-glucose, 10 μM C6-NBD-ceramide with 35 μM dioleoylphosphatidylcholine/5 μM sulfatide in a final reaction volume of 100 μl at 37° C. for 1 hour. The final concentration of DMSO was 0.1% in both compound treated and DMSO only treated samples. Each individual reaction was terminated with 11 volumes of methanol:acetonitrile (6:5; containing 200 ng/ml Tolbutamide as internal control). After sufficient mixing, reactions were centrifuged at 2000 rpm for 10 mins, supernatant was injected into the LC-MS/MS for analysis.
# For the assay with L6 cell lysate, different amounts of L6 cell lysate were used.
# as §3, §4
# To confirm the inhibitory activity of test compounds on GCS from different species, cells from rat were used. First, the presence of GCS activity was verified using various amounts of L6 cell lysate (FIG. 34, Table 26).
# [6] = 1 μM, 60 μg MDCK lysate/reaction, N = 1, N = 2
structure (smiles),measurement,setting,value
O=C(N[C@H](CN1CCCC1)[C@H](O)c1ccc(OC2CC2)c(Cl)c1)/C(=N/O)c1ccc2cc(Cl)ccc2c1.O=C(O)C(O)C(O)C(=O)O,XRPD after DVS test,[1],No form change
same,hygroscopicity (DVS),[1],slightly hygroscopic
same,Desorp. (DVS),[1]; 0% RH,0.00%
same,Sorp. (water uptake by DVS),[1]; 0% RH,0.00%
same,Desorp. (DVS),[1]; 10% RH,0.07%
same,Sorp. (water uptake by DVS),[1]; 10% RH,0.04%
same,Desorp. (DVS),[1]; 20% RH,0.12%
same,Sorp. (water uptake by DVS),[1]; 20% RH,0.09%
same,Desorp. (DVS),[1]; 30% RH,0.18%
same,Sorp. (water uptake by DVS),[1]; 30% RH,0.14%
same,Desorp. (DVS),[1]; 40% RH,0.22%
same,Sorp. (water uptake by DVS),[1]; 40% RH,0.18%
same,Sorp. (water uptake by DVS),[1]; 50% RH,0.25%
same,Sorp. (water uptake by DVS),[1]; 60% RH,0.28%
same,Sorp. (water uptake by DVS),[1]; 70% RH,0.35%
same,Sorp. (water uptake by DVS),[1]; 80% RH,0.42%
same,Sorp. (water uptake by DVS),[1]; 90% RH,0.57%
same,water uptake increased from 40% RH to 90% RH,[1],about 0.39%
same,Bulk (XRPD),"[2]; 25° C./92% RH, open container",No form change
same,"Purity, Bulk (HPLC)","[2]; 25° C./92% RH, open container",99.8%
same,Bulk (XRPD),"[2]; 40° C./75% RH, open container",No form change
same,"Purity, Bulk (HPLC)","[2]; 40° C./75% RH, open container",99.8%
same,Bulk (XRPD),"[2]; 60° C., tight container",No form change
same,"Purity, Bulk (HPLC)","[2]; 60° C., tight container",99.8%
"O=C(N[C@H](CN1CCCC1)[C@H](O)c1ccc(OC2CC2)c(Cl)c1)/C(=N/O)c1ccc2cc(Cl)ccc2c1 [Compound 1, (E)-N-((1R,2R)-1-(3-chloro-4-cyclopropoxyphenyl)-1-hydroxy-3-(pyrrolidin-1-yl)propan-2-yl)-2-(6-chloronaphthalen-2-yl)-2-(hydroxyimino)acetamide]",pH dependence of solubility,[3]; […],typical pH dependent solubility
"CCCCCCCC(=O)N[C@H](CN1CCCC1)[C@H](O)c1ccc2c(c1)OCCO2 [Eliglustat, reference compound]",C6-NBD-Ceramide (Normalized to internal control),[4]; [6],4.68 and 4.99
same,C6-NBD-Glucosylceramide Concentration,[4]; [6],49.8 nM and 59.3 nM
same,Inhibition,[4]; [6],94.01%
same,inhibition at 1 µM,[4]; [6],95%
same,IC50,"[4]; MDCK cell lysate as source of GCS, C6-NBD-glucosylceramide by LC-MS/MS",52.2 nM
same,C6-NBD-Ceramide (Normalized to internal control),[5]; 30 μg L6 lysate/reaction,5.98 and 6.37
same,C6-NBD-Glucosylceramide Concentration,[5]; 30 μg L6 lysate/reaction,31.2 nM and 51.0 nM
same,Inhibition,[5]; 30 μg L6 lysate/reaction,92.48%
same,inhibition at 1 µM,[5]; 30 μg L6 lysate/reaction,95.4%
same,C6-NBD-Ceramide (Normalized to internal control),[5]; 60 μg L6 lysate/reaction,6.47 and 5.46
same,C6-NBD-Glucosylceramide Concentration,[5]; 60 μg L6 lysate/reaction,50.2 nM and 44.1 nM
same,Inhibition,[5]; 60 μg L6 lysate/reaction,96.04%
same,inhibition at 1 µM,[5]; 60 μg L6 lysate/reaction,95.5%
same,C6-NBD-Ceramide (Normalized to internal control),[5]; 120 μg L6 lysate/reaction,5.82 and 6.23
same,C6-NBD-Glucosylceramide Concentration,[5]; 120 μg L6 lysate/reaction,48.4 nM and 57.9 nM
same,Inhibition,[5]; 120 μg L6 lysate/reaction,95.77%
same,inhibition at 1 µM,[5]; 120 μg L6 lysate/reaction,96.5%
same,C6-NBD-Ceramide (Normalized to internal control),[5]; 180 μg L6 lysate/reaction,5.60 and 5.41
same,C6-NBD-Glucosylceramide Concentration,[5]; 180 μg L6 lysate/reaction,63.6 nM and 63.3 nM
same,Inhibition,[5]; 180 μg L6 lysate/reaction,95.22%
same,inhibition at 1 µM,[5]; 180 μg L6 lysate/reaction,95.2%
same,C6-NBD-Ceramide (Normalized to internal control),[5]; 240 μg L6 lysate/reaction,4.96 and 5.12
same,C6-NBD-Glucosylceramide Concentration,[5]; 240 μg L6 lysate/reaction,56.2 nM and 57.7 nM
same,Inhibition,[5]; 240 μg L6 lysate/reaction,95.21%
same,inhibition at 1 µM,[5]; 240 μg L6 lysate/reaction,95.3%
O=C(N[C@H](CN1CCCC1)[C@H](O)c1ccc(OC2CC2)c(Cl)c1)/C(=N/O)c1ccc2cc(Cl)ccc2c1.O=C(O)C[C@H](O)C(=O)O,XRPD after DVS test,[1],No form change
same,hygroscopicity (DVS),[1],slightly hygroscopic
same,Desorp. (DVS),[1]; 0% RH,0.17%
same,Sorp. (water uptake by DVS),[1]; 0% RH,0.17%
same,Desorp. (DVS),[1]; 10% RH,0.22%
same,Sorp. (water uptake by DVS),[1]; 10% RH,0.22%
same,Desorp. (DVS),[1]; 20% RH,0.26%
same,Sorp. (water uptake by DVS),[1]; 20% RH,0.26%
same,Desorp. (DVS),[1]; 30% RH,0.30%
same,Sorp. (water uptake by DVS),[1]; 30% RH,0.30%
same,Desorp. (DVS),[1]; 40% RH,0.33%
same,Sorp. (water uptake by DVS),[1]; 40% RH,0.33%
same,Sorp. (water uptake by DVS),[1]; 50% RH,0.36%
same,Sorp. (water uptake by DVS),[1]; 60% RH,0.40%
same,Sorp. (water uptake by DVS),[1]; 70% RH,0.48%
same,Sorp. (water uptake by DVS),[1]; 80% RH,0.56%
same,Sorp. (water uptake by DVS),[1]; 90% RH,0.92%
same,water uptake increased from 40% RH to 90% RH,[1],about 0.59%
same,chemical and physical stability,"[2]; 25° C./92% RH open container, 40° C./75% RH open container, 60° C. tight container, one week",chemically and physically stable
same,Bulk (XRPD),"[2]; 25° C./92% RH, open container",No form change
same,"Purity, Bulk (HPLC)","[2]; 25° C./92% RH, open container",99.8%
same,Bulk (XRPD),"[2]; 40° C./75% RH, open container",No form change
same,"Purity, Bulk (HPLC)","[2]; 40° C./75% RH, open container",99.8%
same,Bulk (XRPD),"[2]; 60° C., tight container",No form change
same,"Purity, Bulk (HPLC)","[2]; 60° C., tight container",99.8%
same,higher solubility than that of the free form Crystalline Form A of Compound 1,"[3]; pH 4.5 buffer, 37° C.",about 3 folds
